From US20170342451A1, “BIOSYNTHESIS OF PACLITAXEL INTERMEDIATE” (Board of Trustees of Michigan State University, priority 2012, published 2017)

How the values were obtained:
TycA = target: T1, TycA (Brevibacillus parabrevis, UniProt P09095); assay: N-acetylcysteamine ligase reaction kinetics, TycA; type: biochemical, Brevibacillus brevis; conditions: NAC with (S)-α-Phe as cosubstrate; for kcat^NAC: TycA with NAC at apparent saturation
T1 construct: this wild-type tycA cDNA encoding the A-, T-, and E-domains was subcloned into a pSU18 vector; made in house; host or cells: Escherichia coli BL21(DE3)
T1 sequence (P09095 with tags, fused parts or gaps): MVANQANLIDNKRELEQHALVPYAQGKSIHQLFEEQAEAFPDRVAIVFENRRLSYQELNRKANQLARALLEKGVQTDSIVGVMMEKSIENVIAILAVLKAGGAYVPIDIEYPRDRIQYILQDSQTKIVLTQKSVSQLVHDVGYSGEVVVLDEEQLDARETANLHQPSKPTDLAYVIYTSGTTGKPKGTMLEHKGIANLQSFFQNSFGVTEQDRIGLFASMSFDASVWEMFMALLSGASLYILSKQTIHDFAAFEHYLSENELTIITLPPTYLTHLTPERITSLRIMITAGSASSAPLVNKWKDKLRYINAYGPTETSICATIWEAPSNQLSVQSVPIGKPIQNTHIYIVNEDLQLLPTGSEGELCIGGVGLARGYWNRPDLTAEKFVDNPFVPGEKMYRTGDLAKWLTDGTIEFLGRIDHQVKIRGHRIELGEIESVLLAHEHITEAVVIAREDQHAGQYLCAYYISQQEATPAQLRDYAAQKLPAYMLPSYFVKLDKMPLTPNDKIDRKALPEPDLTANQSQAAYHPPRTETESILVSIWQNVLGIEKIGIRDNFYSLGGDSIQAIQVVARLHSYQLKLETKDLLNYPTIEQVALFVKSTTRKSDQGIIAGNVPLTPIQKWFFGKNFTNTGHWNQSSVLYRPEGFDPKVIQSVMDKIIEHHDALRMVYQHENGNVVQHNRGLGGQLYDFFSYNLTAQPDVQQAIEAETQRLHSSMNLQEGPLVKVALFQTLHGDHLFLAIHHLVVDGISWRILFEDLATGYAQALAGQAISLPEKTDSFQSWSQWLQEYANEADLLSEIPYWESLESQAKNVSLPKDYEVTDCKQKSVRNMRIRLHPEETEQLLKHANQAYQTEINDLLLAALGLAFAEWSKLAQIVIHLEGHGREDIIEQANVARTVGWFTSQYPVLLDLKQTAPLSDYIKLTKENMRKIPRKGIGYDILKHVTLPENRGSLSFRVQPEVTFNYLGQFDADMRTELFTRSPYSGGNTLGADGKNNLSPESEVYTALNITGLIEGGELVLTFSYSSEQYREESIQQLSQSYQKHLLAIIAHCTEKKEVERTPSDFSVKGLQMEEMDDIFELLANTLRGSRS
Method: Substrates (S)-α-phenylalanine, (R)-β-phenylalanine, and (2R,3S)-phenylisoserine (each at 1 mM) were separately incubated with TycA or TycA-S563A (20 μg) in the presence of N-acetylcysteamine (NAC; 1 mM), ATP (1 mM), and Mg^2+ (3 mM) to establish steady-state conditions with respect to protein concentration and time at 31° C. Under steady-state conditions, either (S)-phenylalanine, (R)-β-phenylalanine, or (2R,3S)-phenylisoserine at 5, 10, 20, 40, 80, 160, 250, 500, 1000 and 2000 μM was separately incubated with TycA or TycA-S563A (20 μg), ATP (1 mM), Mg^2+ (3 mM), and N-acetylcysteamine (1 mM, ‘NAC’) in duplicate, single stopped-time ([…]) 100 μL assays. The reactions were quenched by acidification to a pH of about 2 (10% formic acid in distilled water). […] The samples were analyzed on a Quattro-Premier Electro-Spray Mass Spectrometer coupled with Acquity® UPLC system fitted with a C18 Ascentis Express column (2.5×50 mm, 2.7 μm) at 30° C. […] In brief, the effluent from the chromatography column was directed to the Quattro Premier ESI mass spectrometer, in MRM scan mode, to quantify the biosynthetic acyl SNAC products. […] A standard curve was used to convert the peak area under the curve of the monitored fragment ion to concentration for each biosynthetic phenylpropionyl SNAC.
(§1) Authentic (5)-α-phenylalanyl, (R/S)-β-phenylalanyl- and (2R,3S)-phenylisoserinyl-SNAC were used to construct the standard curves by correlating the peak area under the curve of the monitored ion to concentration of the standard (at 0.16, 0.32, 0.64, 1.3, 2.5, 5, 10, 20, 40, 80, 160 and 320 μM) using linear regression analysis.
The KM values of TycA and TycA-S563A for N-acetylcysteamine (NAC) was assessed by incubating each enzyme separately with (S)-α-phenylalanine (1 mM), MgCl2 (3 mM), ATP (1 mM), and N-acetylcysteamine at 5, 10, 20, 40, 80, 160, 250, 500, 1000 and 2000 μM at 31° C. for 20 min. […]

TycA-S563A = TycA-S563A (Brevibacillus parabrevis, UniProt P09095, S563A); conditions: for kcat^NAC: TycA-S563A with NAC at apparent saturation
Method: Substrates (S)-α-phenylalanine, (R)-β-phenylalanine, and (2R,3S)-phenylisoserine (each at 1 mM) were separately incubated with TycA or TycA-S563A (20 μg) in the presence of N-acetylcysteamine (NAC; 1 mM), ATP (1 mM), and Mg^2+ (3 mM) to establish steady-state conditions with respect to protein concentration and time at 31° C. Under steady-state conditions, either (S)-phenylalanine, (R)-β-phenylalanine, or (2R,3S)-phenylisoserine at 5, 10, 20, 40, 80, 160, 250, 500, 1000 and 2000 μM was separately incubated with TycA or TycA-S563A (20 μg), ATP (1 mM), Mg^2+ (3 mM), and N-acetylcysteamine (1 mM, ‘NAC’) in duplicate, single stopped-time ([…]) 100 μL assays. The reactions were quenched by acidification to a pH of about 2 (10% formic acid in distilled water). (N-Boc)-α-phenylalanyl-SNAC (1 μM) was added as an internal standard when (S)-α-phenylalanine or (2,3)-phenylisoserine was used as the substrate; alternatively, (N-Boc)-β-phenylalanyl-SNAC (1 μM) was added as an internal standard when (R)-β-phenylalanine was used as the substrate (the synthesis is described below). The samples were analyzed on a Quattro-Premier Electro-Spray Mass Spectrometer coupled with Acquity® UPLC system fitted with a C18 Ascentis Express column (2.5×50 mm, 2.7 μm) at 30° C. An aliquot (5 μL) of each sample was loaded onto the column and the analytes were eluted with a solvent gradient of […] 0.05% triethylamine in distilled water (Solvent B) (held at 2.5% Solvent A for […], increased to 100% A over 5 sec with a 2-min hold, and then returned to 2.5% Solvent A over 5 sec with a 50-sec hold) at a flow rate of 0.4 mL/min. In brief, the effluent from the chromatography column was directed to the Quattro Premier ESI mass spectrometer, in MRM scan mode, to quantify the biosynthetic acyl SNAC products. The transition ions derived from the corresponding molecular ions were m/z 120.06, 131.10 and 105.95 for (S)-α-phenylalanyl-SNAC, (R)-β-phenylalanyl-SNAC and (2R,3S)-phenylisoserinyl-SNAC, respectively. A standard curve was used to convert the peak area under the curve of the monitored fragment ion to concentration for each biosynthetic phenylpropionyl SNAC.
as §1
The KM values of TycA and TycA-S563A for N-acetylcysteamine (NAC) was assessed by incubating each enzyme separately with (S)-α-phenylalanine (1 mM), MgCl2 (3 mM), ATP (1 mM), and N-acetylcysteamine at 5, 10, 20, 40, 80, 160, 250, 500, 1000 and 2000 μM at 31° C. for 20 min. The reactions were quenched by acidification to a pH of about 2 (10% formic acid in distilled water), and an internal standard, (N-Boc)-α-phenylalanyl-SNAC (1 μM), was added to each sample to correct for variations of the analyte. The [S-(acyl)-N-(acetyl)]cysteamine (SNAC) thioester products of the enzyme-catalyzed reaction were quantified by a liquid chromatography multiple reaction monitoring (MRM) mass spectrometry technique, and the monitored fragment ion (m/z 120) derived from the SNAC moiety of thioester analyte in the effluent was quantified identically to the procedure described earlier.

[1] = NAC with (S)-α-Phe as cosubstrate

SMILES | kcat^NAC (TycA) [s⁻¹] | Km (TycA; TycA with NAC) [µM] | kcat^NAC (TycA-S563A; [1]) [s⁻¹] | Km (TycA-S563A; TycA-S563A with NAC, NAC with (S)-α-Phe as cosubstrate) [µM] | decrease in turnover, TycA-S563A compared to TycA (TycA-S563A; NAC cosubstrate) [fold] | increase in KM, TycA-S563A compared to TycA (TycA-S563A; NAC cosubstrate) [fold] | lower catalytic efficiency of TycA-S563A compared to that of TycA (TycA-S563A; NAC cosubstrate) [fold]
N[C@@H](c1ccccc1)[C@@H](O)C(=O)O [(2R,3S)-PheIso, (2R,3S)-phenylisoserine] | 0.00317 ± 0.00017 | 132 ± 56 | 0.00517 ± 0.00083 | 512 ± 43 |  |  | 
N[C@H](CC(=O)O)c1ccccc1 [(R)-β-Phe, (R)-β-phenylalanine] | 0.006 ± 0.001 |  | 0.0004 ± 1.7e-05 |  | 15 | ~2 | ~30
